Data on 13 compounds can be found in US7985744B2, “Vitamin D derivatives” (Chugai Seiyaku Kabushiki Kaisha, priority 2000, dated 2011).

For data set [1], the system named is Keratinocytes from human neonatal foreskin. Nature of the data set: Growth inhibition against human keratinocytes, [3H]thymidine uptake (Test Example 2). As to conditions: relative inhibition = IC50 of active vitamin D3 / IC50 of each compound. It counts as cell-based. Here is the method:
Keratinocytes from human neonatal foreskin (Clonetics) were seeded in 96-well plates (COSTAR 3595) at a cell density of 2×10^3/well. The wells were then supplemented with the given concentrations of active vitamin D3 (1α,25 (OH)2D3) or Compounds 1 to 5, followed by incubation in KGM-2 medium at a cell density of 2×10^3 cells/200 μl/well for 3 days at 37° C. in 5% CO2 and 95% air. [^3H]Thymidine was added to each well (7.4 kBq/well) and the plates were further incubated for 1 day. Each well was washed once with calcium- and magnesium-free phosphate buffer (Dulbecco's PBS(−), Nissui, code 05913, pH 7.3-7.65) and then treated with 0.25% trypsin to strip the cells. The [^3H]thymidine uptake of the cells was determined by a liquid scintillation counter (1450 MicroBeta, Wallac). […] Growth inhibition against human keratinocytes in the table was expressed as a relative value of each compound compared to active vitamin D3: Relative inhibition=(IC50 (mol/l) of active vitamin D3)/(IC50 (mol/l) of each compound).

In data set [2] the test system is Keratinocytes from adult human skin. Nature of the data set: Growth inhibition against keratinocytes, [3H]thymidine incorporation (Test Example 4). It counts as cell-based. As to conditions: relative inhibition = IC50 of active vitamin D3 / IC50 of test compound. Here is the method:
Keratinocytes from adult human skin (Clonetics) were seeded in 96-well plates (COSTAR 3595) at a cell density of 1×10^3/well. The wells were then supplemented with the given concentrations of active vitamin D3 (1α,25 (OH)2D3) or Compounds 6 to 12, followed by incubation in KGM-2 medium at a cell density of 1×10^3 cells/200 μl/well for 3 days at 37° C. in 5% CO2 and 95% air. [^3H]Thymidine was added to each well (7.4 kBq/well) and the plates were further incubated for 1 day. After removal of the medium, each well was treated with 0.05% trypsin/0.53 mM EDTA to strip the cells. The amount of [^3H]thymidine incorporated into the cells was determined with a liquid scintillation counter (1450 MicroBeta, Wallac). […] Growth inhibition against keratinocytes in the table was expressed as a relative value of each compound compared to active vitamin D3: Relative inhibition=(IC50 (mol/l) of active vitamin D3)/(IC50 (mol/l) of test compound).
Background: Uptake of a labelled nucleoside into DNA is a usual measure of proliferation.

Data set [3] can be described thus: Blood ionized calcium level in mice after percutaneous administration (Test Examples 1 and 3). It counts as in vivo. As to conditions: Balb/c mice, percutaneous single application, dose 1000 μg/kg, blood taken two days after administration. Here is the method: Eight week old male Balb/c mice were percutaneously administered with active vitamin D3 (1α,25 (OH)2D3, 125 μg/ml in ethanol) or Compounds 1 to 5 (vitamin D derivatives prepared in the above Examples, 500 μg/ml in ethanol) or ethanol alone (as a control). These samples were applied once to the dorsal skin (about 1.5×2.0 cm^2) of the mice in a volume of 2 ml/kg. Each of the mice was then fitted with a necklace harness in order to avoid oral ingestion. On the next day, the administered sites were cleaned and the necklace harnesses were removed. Two days after administration, blood was taken from each mouse and assayed for ionized calcium level by the ion selective electrode method. The assay was performed in groups of 3 mice. […] Ionized calcium levels in the table are expressed as mean values.
The same procedures as shown in Test Example 1 were repeated to assay blood ionized calcium levels in mice, except that Compounds 6 to 12 were used as vitamin D derivatives. […] Ionized calcium levels in the table are expressed as mean values.

For the compound 1α,25(OH)2D3, the “Growth inhibition against human keratinocytes (relative value)” value (“Growth inhibition … (relative value)” below) in data set [1] and in data set [2] was 1.0 throughout.

As for “1α,3β-dihydroxy-20(S)-(1-isopropyl-2-methylpropoxycarbonylmethoxy)-9,10-secopregna-5,7,10(19),16-tetraene [Compound 7]”, the “Blood ionized calcium level” value in data set [3] (Test Example 3, mean values) turned out to be 1.28 mmol/L. Further, in data set [2], the “Growth inhibition … (relative value)” value is on record as 0.4.

As for `C=C1/C(=C\C=C2/CCC[C@]3(C)C([C@H](C)OCC(=O)OC(C)(CC)CC)=CC[C@@H]23)C[C@@H](O)C[C@@H]1O` [Compound 6, 1α,3β-dihydroxy-20(S)-(1-ethyl-1-methylpropoxycarbonylmethoxy)-9,10-secopregna-5,7,10(19),16-tetraene], the “Blood ionized calcium level” value in data set [3] (Test Example 3, mean values) is 1.57 mmol/L. Further, in data set [2], the “Growth inhibition … (relative value)” value amounted to 12.0.

As to “1α,3β-dihydroxy-20(S)-(N-tert-butyl-N-methylaminocarbonylmethoxy)-9,10-secopregna-5,7,10(19),16-tetraene [Compound 2]”, the “Blood ionized calcium level” value in data set [3] (Test Example 1, mean of 3 mice) worked out at 2.27 mmol/L. In addition, the “Growth inhibition … (relative value)” value in data set [1] came out at 5.9.

In the case of “1α,3β-dihydroxy-20(S)-(N-tert-butylaminocarbonylmethoxy)-9,10-secopregna-5,7,10(19),16-tetraene [Compound 4]”, the “Blood ionized calcium level” value in data set [3] (Test Example 1, mean of 3 mice) was 2.16 mmol/L. Further, the “Growth inhibition … (relative value)” value in data set [1] is listed as 7.0.

Consider `C=C1C(=CC=C2CCCC3(C)C(C(C)OCC(=O)OC(C)C)=CCC23)CC(O)CC1O` [Compound 5, 1α,3β-dihydroxy-20(S)-(isopropoxycarbonylmethoxy)-9,10-secopregna-5,7,10(19),16-tetraene], for which, in data set [3] (Test Example 1, mean of 3 mice), the “Blood ionized calcium level” value was 1.35 mmol/L. The “Growth inhibition … (relative value)” value in data set [1] is 0.3.

For the compound `C=C1/C(=C\C=C2/CCC[C@]3(C)C([C@H](C)OCC(=O)NCC(F)(F)C(F)(F)F)=CC[C@@H]23)C[C@@H](O)C[C@@H]1O` [Compound 12, {(1α,3β-dihydroxy-9,10-secopregna-5,7,10(19),16-tetraen-20(S)-yl)oxy}-N-(2,2,3,3,3-pentafluoropropyl)acetamide], the “Blood ionized calcium level” value in data set [3] (Test Example 3, mean values) is 1.58 mmol/L. In addition, the “Growth inhibition … (relative value)” value in data set [2] is 8.3.

As for `C=C1C(=CC=C2CCCC3(C)C(C(C)OCCC(=O)OC(C)(CC)CC)=CCC23)CC(O)CC1O` [Compound 11, 1α,3β-dihydroxy-20(S)-{2-(1-ethyl-1-methylpropoxycarbonyl)ethoxy}-9,10-secopregna-5,7,10(19),16-tetraene], the “Blood ionized calcium level” value in data set [3] (Test Example 3, mean values) was 1.42 mmol/L. Also, the “Growth inhibition … (relative value)” value in data set [2] is recorded as 0.4.

On to “1α,3β-dihydroxy-20(S)-(1,1-dimethylhexyloxycarbonylmethoxy)-9,10-secopregna-5,7,10(19),16-tetraene [Compound 10]”, for which the “Blood ionized calcium level” value in data set [3] (Test Example 3, mean values) is 1.43 mmol/L. Further, the “Growth inhibition … (relative value)” value in data set [2] amounted to 1.6.

Consider `C=C1C(=CC=C2CCCC3(C)C(C(C)OCC(=O)OC(C)(C)CCC)=CCC23)CC(O)CC1O` [Compound 8, 1α,3β-dihydroxy-20(S)-(1,1-dimethylbutoxycarbonylmethoxy)-9,10-secopregna-5,7,10(19),16-tetraene], for which, in data set [3] (Test Example 3, mean values), the “Blood ionized calcium level” value is 1.39 mmol/L. In addition, in data set [2], the “Growth inhibition … (relative value)” value is recorded as 2.5.

In the case of `C=C1C(=CC=C2CCCC3(C)C2CCC3C(C)OCC(=O)OC(C)(CC)CC)CC(O)CC1O` [Compound 9, 1α,3β-dihydroxy-20(S)-(1-ethyl-1-methylpropoxycarbonylmethoxy)-9,10-secopregna-5,7,10(19)-triene], in data set [3] (Test Example 3, mean values), the “Blood ionized calcium level” value was determined as 1.55 mmol/L. Moreover, the “Growth inhibition … (relative value)” value in data set [2] is 0.7.

On to `C=C1/C(=C\C=C2/CCC[C@]3(C)C([C@H](C)OCCC(=O)OC(C)(C)C)=CC[C@@H]23)C[C@@H](O)C[C@@H]1O` [Compound 3, 1α,3β-dihydroxy-20(S)-(tert-butoxycarbonylethoxy)-9,10-secopregna-5,7,10(19),16-tetraene], for which, in data set [1], the “Growth inhibition … (relative value)” value was 0.5.

“20(S)-(tert-butoxycarbonylmethoxy)-1α,3β-dihydroxy-9,10-secopregna-5,7,10(19),16-tetraene [Compound 1]”: the “Blood ionized calcium level” value in data set [3] (Test Example 1, mean of 3 mice) is 1.65 mmol/L. In addition, the “Growth inhibition … (relative value)” value in data set [1] was found to be 2.0.
